Measurements: patent US20110224221A1, “HEMATOPOIETIC PROTECTION AGAINST IONIZING RADIATION USING SELECTIVE CYCLIN-DEPENDENT KINASE 4/6 INHIBITORS” (priority 2008, published 2011)
Entries after “also recorded” stand apart in the source; their conditions may differ.

Columns and labels:
[1] = test system: human melanoma cell line WM2664; experiment: Cell cycle analysis (BrdU incorporation in vitro), WM2664; format: cell-based; conditions: for cell cycle effect: WM2664, 24 hours exposure
From the text: (§1) FIG. 3A is a set of graphs showing the dose-response curves for cycle analysis in both cyclin-dependent kinase 4/6 (CKD4/6)-dependent cells (human telomerized human diploid fibroblasts (tHDFs, left-hand column of graphs) and a CDK4/6-dependent human melanoma cell line (WM2664, middle column of graphs)) and in CDK4/6-independent cells (a human retinoblastoma tumor suppressor protein (RB)-null melanoma cell line (A2058), right-hand column of graphs). […] The percentage of cells in the G1 phase is indicated by the data shown in the open triangles, while the percentage of cells in the S phase is shown by the data in the shaded circles and the percentage of cells in the G2/M phase is indicated by the data in the double “x”s.
FIG. 8 is a set of representative cell cycle dot-plots for cyclin-dependent kinase 4/6 (CDK4/6)-dependent (WM2664) human melanoma cells (top two rows) and CDK4/6-independent (A2058) human melanoma cells (bottom two rows) that had been treated with dimethyl sulfoxide (DMSO) as a control or with 300 nM, 1 μM, 3 μM, 10 μM or 30 μM of trans-4-[[6-ethylamino)-2-[[2-phenylmethyl)-1H-indol-5-yl]amino]-4-pyrimidinyl]amino]]-cyclohexanol (CINK4).
(§2) Cell Lines: KPTR1, KPTR4. and KPTR5 were derived from tumor-bearing TyrRAS+Ink4a/Arf−/− by standard procedures and cultured in RPMI+10% fetal bovine serum (FBS). Telomerized HDFs (tHDFs, also known as HS68) were cultured in DMEM+10% FBS with penicillin and streptomycin. The same conditions were used for A2058 and WM2664, human melanoma cell lines with known RB-pathway mutations: A2058 is RB-null, whereas WM2664 lacks p16^INK4a/Arf. See Shields, et al., Cancer Res., 67, 1502-1512 (2007). Cells were irradiated for indicated doses in a Rad Source Inc. (Alpharetta, Ga., United States of America) RS-2000 Biological Irradiator at 160 kV, 25.0 mA, at distance setting 1, with a dose rate of 103 rads/min.
(§3) BrdU Incorporation in vitro: Cells were plated and allowed to adhere overnight or at least 6 hours prior to adding CDK4/6 inhibitor at the indicated concentrations. Cells were grown for 24 hours in the presence of CDK4/6 inhibitor. 15 minutes prior to cell harvesting, 5-Bromo-2-deoxyuridine (BrdU) was added to the media at a final concentration of 10 μM. The cells were then washed, trypsinized, pelleted, fixed, permeabilized, stained, and measured on a flow cytometer as described in manufacturer directions for the BrdU Kit (BD Biosciences Pharmingen, San Diego, Calif., United States of America).
(§4) The proliferation of seven RB-deficient human small cell lung cancer lines was also resistant to the selective CDK4/6 inhibitors.

tHDF (HS68) cells = experiment: Clonogenic assay after IR, tHDF (HS68); format: cell-based, human; conditions: PD0332991 100 nM, 2BrIC 2 μM, CINK4 6 μM, IR 0-9 Gy
Method: FIG. 6A is a set of micrograph images of crystal violet stained cell cultures of cyclin-dependent kinase 4/6 (CDK4/6)-dependent cells (HS68) plated at different cell/well ratios and treated with either dimethyl sulfoxide (DMSO) as a negative control or with the selective CDK4/6 inhibitor 2-bromo-12,13-dihydro-5H-indolo[2,3-a]pyrrolo[3,4]carbazole-5,6-dione (2BrIC) at 2 μM for 24 hours prior to exposure to ionizing radiation at 0, 1.5, 3, 6, or 9 gray (Gy), as indicated.
Data plotted is the area/cell ratio of PD0332991 treated cells to dimethyl sulfoxide (DMSO) treated cells. Error bars show standard error of the mean.
FIG. 9A is a set of micrograph images of cell cultures of cyclin-dependent kinase 4/6 (CDK4/6)-dependent cells (HS68) plated at different cell/well ratios and pretreated with either dimethyl sulfoxide (DMSO) as a control or with the nonselective CDK4/6 inhibitor trans-4-[[6-ethylamino)-2-[[1-phenylmethyl)-1H-indol-5-yl]amino]-4-pyrimidinyl]amino]]-cyclohexanol (CINK4) at 6 μM for 24 hours prior to exposure to ionizing radiation at 0, 1.5, 3, 6, or 9 gray (Gy), as indicated. The plates were stained with crystal violet to visualize cell colonies.
Clonogenic Assay: The clonogenic assay was performed as previously described (see Franken et al., Nature protocols, 1, 2315-1319 (2006)) with cells plated in a six-well plate at least 6 hours prior to treatment with CDK inhibitor for 24 hours, with 6 Gy IR occurring 12 hours after initiation of CDK inhibitor exposure. Cells were grown for 16 days, washed, fixed, and stained with crystal violet. Plates were then imaged using an Odyssey infrared scanner (Li-Cor Biosciences, Lincoln, Nebr., United States of America) and quantified using the accompanying software.

[2] = test system: RB-null melanoma line A2058; experiment: Cell cycle analysis (BrdU incorporation in vitro), A2058; format: cell-based, human; conditions: A2058, concentrations between 300 nM and 30 μM
From the text: FIG. 3A is a set of graphs showing the dose-response curves for cycle analysis in both cyclin-dependent kinase 4/6 (CKD4/6)-dependent cells (human telomerized human diploid fibroblasts (tHDFs, left-hand column of graphs) and a CDK4/6-dependent human melanoma cell line (WM2664, middle column of graphs)) and in CDK4/6-independent cells (a human retinoblastoma tumor suppressor protein (RB)-null melanoma cell line (A2058), right-hand column of graphs). […] The percentage of cells in the G1 phase is indicated by the data shown in the open triangles, while the percentage of cells in the S phase is shown by the data in the shaded circles and the percentage of cells in the G2/M phase is indicated by the data in the double “x”s. […]
BrdU Incorporation in vitro: Cells were plated and allowed to adhere overnight or at least 6 hours prior to adding CDK4/6 inhibitor at the indicated concentrations. […] The cells were then washed, trypsinized, pelleted, fixed, permeabilized, stained, and measured on a flow cytometer as described in manufacturer directions for the BrdU Kit (BD Biosciences Pharmingen, San Diego, Calif., United States of America). […]

[3] = test system: telomerized human diploid fibroblasts (tHDF); experiment: Cell cycle analysis (BrdU incorporation in vitro), tHDF; format: cell-based; conditions: 24 hours exposure
From the text: as §1, §2, §3, §4

SMILES | substantially pure G1 arrest ([1]; WM2664, concentrations between 300 nM and 30 μM) | clonogenic cell survival after IR (area/cell ratio relative to DMSO) (tHDF (HS68) cells) | substantially pure G1 arrest [2] | cell cycle effect [1] | cell cycle effect [3]
CCNc1cc(N[C@H]2CC[C@H](O)CC2)nc(Nc2ccc3c(ccn3Cc3ccccc3)c2)n1 [CINK4] | did not induce a substantially pure (i.e. “clean”) G1 arrest | failed to enhance cell survival; also recorded: lack of enhanced cell survival | did not induce a substantially pure (i.e. “clean”) G1 arrest |  | 
COc1ccc(F)c(F)c1C(=O)c1cnc(NC2CCN(S(C)(=O)=O)CC2)nc1N [Compound 7] |  |  |  | G2/M block, intra-S arrest, or cell death (sub-GO) | G2/M block, intra-S arrest, or cell death (sub-GO)
CN1CC[C@H](c2c(O)cc(O)c3c(=O)cc(-c4ccccc4Cl)oc23)[C@H](O)C1 [flavopiridol] |  |  |  | G2/M block, intra-S arrest, or cell death (sub-GO) | G2/M block, intra-S arrest, or cell death (sub-GO)
CC[C@H](CO)Nc1nc(NCc2ccccc2)c2ncn(C(C)C)c2n1 [roscovitine, Roscovitine] |  |  |  | G2/M block, intra-S arrest, or cell death (sub-GO) | G2/M block, intra-S arrest, or cell death (sub-GO)
